The structures appear in SMILES notation.

Two compounds from patent publication US7919622B2, “Intermediates for fluorinated tetrabenazine carbinol compounds imaging agents and probes” (priority 2007, dated 2011) can be followed below.

The assay has as its target T1, VMAT-2 (Homo sapiens, UniProt Q05940).
T1 construct: Novascreen Biosciences Corporation (contract assay provider) protocol Cat. No. 100-0751
The assay is described as follows: VMAT-2 binding affinity measurement (Novascreen protocol Cat. No. 100-0751). To be noted: for Ki: VMAT-2 binding affinity, reserpine value is the average of two Ki values; for binding affinity for VMAT-2 (in words): relative to reserpine and DTBZ controls. The text has this: Novascreen, Inc. is a commercial provider of biological assays for the pharmaceutical industry. […] In addition, the binding constants Ki expressed in nano-molar (nM) concentration units indicate a very high affinity of the fluoroalkyl tetrabenazine carbinol compounds of the present invention for the VMAT-2 biomarker.

T1 sequence (Q05940 whole entry, species assumed): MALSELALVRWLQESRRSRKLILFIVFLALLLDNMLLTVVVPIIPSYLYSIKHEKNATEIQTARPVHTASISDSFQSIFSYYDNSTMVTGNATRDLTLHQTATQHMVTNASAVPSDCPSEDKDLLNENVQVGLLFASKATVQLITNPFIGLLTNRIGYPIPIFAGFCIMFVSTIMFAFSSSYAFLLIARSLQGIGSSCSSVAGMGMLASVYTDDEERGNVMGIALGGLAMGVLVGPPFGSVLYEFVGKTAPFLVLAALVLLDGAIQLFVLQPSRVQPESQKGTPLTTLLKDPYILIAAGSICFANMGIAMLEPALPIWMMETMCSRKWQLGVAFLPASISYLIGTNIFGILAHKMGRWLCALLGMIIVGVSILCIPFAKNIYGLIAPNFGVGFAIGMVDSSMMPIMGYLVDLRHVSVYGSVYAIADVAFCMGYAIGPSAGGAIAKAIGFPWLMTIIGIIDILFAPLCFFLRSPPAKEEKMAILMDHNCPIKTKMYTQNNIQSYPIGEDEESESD

For the compound `COc1cc2c(cc1OC)[C@H]1C[C@](O)(C#CCF)[C@H](CC(C)C)CN1CC2` [Compound 17], the affinity corresponds to a Ki of 19 nM and the “binding affinity for VMAT-2 (in words)” value is on record as “very high binding affinity”.

On to `COc1cc2c(cc1OC)[C@H]1C[C@@](C#CCF)(OC(C)=O)[C@H](CC(C)C)CN1CC2` [Compound 16, (2R,3R,11bR)-2-(3-fluoroprop-1-ynyl)-3-isobutyl-9,10-dimethoxy-2,3,4,6,7,11b-hexahydro-1-H-pyrido[2,1-α]isoquinolin-2-yl acetate], for which the Ki (in general, a measure of affinity in units of concentration, obtained from inhibition or displacement) came out at 19 nM and the “binding affinity for VMAT-2 (in words)” value is recorded as “very high binding affinity”.
